From patent publication US7214673B2, “Piperazine substituted aryl benzodiazepines and their use as dopamine receptor antagonists for the treatment of psychotic disorders” (Eli Lilly and Company, priority 2002, dated 2007)
Where a name gives a salt, the structure may show the parent alone.

What was measured:
Dopamine D2 receptor = target: T1, Dopamine D2 receptor (Homo sapiens, UniProt P14416); assay: Dopamine D2 receptor binding assay ([125I]iodospiperone); details: [125I]iodospiperone 0.1 nM, D2 receptor membranes, 2 hours at room temperature; read-out: Relative D2 Receptor Binding Affinity Ki
T1 construct: purchased Receptor Biology (now owned by NEN) RBHD2CM
Protocol: Serotonin 5-HT6 and Dopamine D2 Binding Assay Protocol
The assay buffers used are 50 mM Tris-HCl pH 7.4, 120 mM NaCl, 5 mM KCl, 5 mM MgCl2, 1 mM EDTA for the Dopamine D2s receptor binding assay. […] The membranes used are from Receptor Biology (now owned by NEN), Cat #RBHD2CM for the D2 receptor.
Compounds are obtained as 10 mM stocks in 100% DMSO. They are diluted to 1 mM in 100% DMSO by adding 180 μL DMSO to 20 μL of stock in 96 well plates using a multidrop. […] This is done using a TECAN robot.
The radioligand is diluted in assay buffer to provide 0.1 nM for the D2 assay. Each vial of membranes is diluted up to 92 mL in assay buffer. The final assay volume is 250 μL consisting of 210 μl of diluted membranes, 20 μL of compound or 10% DMSO for total binding, and 20 μL of diluted radioligand. The compounds are transferred from drug dilution plates into coming 96 well assay plates using a 96 well Multimek pipettor. Radioligand and membranes are added to assay plates using multidrop pipettors. Non-specific binding is determined in wells containing a final concentration of 5 μM haloperidol. The final drug concentration range in half logs is from 10 μM down to 0.1 nM.
After addition of drug, membrane, and ligand, the plates are incubated for 2 hours at room temperature. During this time 96 well Millipore filter plates (MAFBNOB50) are soaked for a least 30 minutes with 200 μL per well of 0.5% polyethyleneimine.
The 0.5% PEI is removed from filterplate wells using a TiterTek MAP aspirator and 200 μL of the incubation mixture is transferred from the incubation plate to the filterplate after mixing. This transfer is done using the 96 tip Mutimek pipettor. After transfer to the filterplate filterplates are extracted and ished twice with 220 μL per well of cold buffer on the MAP aspirator. The peel away bottoms are removed from the filterplates and 60 μL per well of microscint 20 scintillation fluid is added per well using a multidrop. Plates are placed into suitable holders and are left at room temperature for 3 hours and are counted for ^3H in either a Wallac Microbeta counter or on a Packard Topcount.

T1 sequence (P14416 1-414 isoform P14416-2): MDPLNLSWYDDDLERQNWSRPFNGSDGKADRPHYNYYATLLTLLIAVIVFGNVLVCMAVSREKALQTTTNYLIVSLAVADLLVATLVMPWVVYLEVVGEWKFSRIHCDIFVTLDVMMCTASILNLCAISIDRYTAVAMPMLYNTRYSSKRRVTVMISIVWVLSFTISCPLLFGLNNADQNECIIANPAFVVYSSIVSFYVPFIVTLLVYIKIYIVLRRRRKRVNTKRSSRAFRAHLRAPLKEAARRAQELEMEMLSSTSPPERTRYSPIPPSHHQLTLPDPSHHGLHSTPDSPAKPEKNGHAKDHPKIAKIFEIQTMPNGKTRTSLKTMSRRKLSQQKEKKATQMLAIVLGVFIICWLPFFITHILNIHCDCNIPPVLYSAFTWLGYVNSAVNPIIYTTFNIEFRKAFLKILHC

| Compound | Ki (Dopamine D2 receptor) [nM] | melting point [°C] |
| --- | --- | --- |
| Cc1cc2c(s1)Nc1ccccc1N=C2N1CCN[C@@H](CCc2ccccc2)C1 [Example 59, 2-Methyl-10-(S)-(3-phenethyl-piperazin-1-yl)-4H-3-thia-4,9-diazabenzo[f]azulene] | 10 to 100 | 75 to 84 |
| Cc1cc2c(s1)Nc1ccccc1N=C2N1CCN[C@@H](Cc2ccccc2)C1 [Example 61] | < 10 | 169 to 170 |
| Cc1ccc(C[C@H]2CN(C3=Nc4ccccc4Nc4sc(C)cc43)CCN2)cc1 [Example 69] | 10 to 100 | 92 to 101 |
| Cc1cccc(C[C@H]2CN(C3=Nc4ccccc4Nc4sc(C)cc43)CCN2)c1 [Example 70] | < 10 | 80 to 97 |
| Cc1cc2c(s1)Nc1ccccc1N=C2N1CCN[C@@H](Cc2ccccc2F)C1 [Example 71] | < 10 | 84 to 102 |
| Cc1cc2c(s1)Nc1ccccc1N=C2N1CCN[C@@H](Cc2cccc(F)c2)C1 [Example 72] | 10 to 100 | 87 to 99 |
| COc1ccccc1C[C@H]1CN(C2=Nc3ccccc3Nc3sc(C)cc32)CCN1 [Example 75] | < 10 | 95 to 109 |
| COc1cccc(C[C@H]2CN(C3=Nc4ccccc4Nc4sc(C)cc43)CCN2)c1 [Example 76] | < 10 | 96 to 109 |
| COc1ccc(C[C@H]2CN(C3=Nc4ccccc4Nc4sc(C)cc43)CCN2)cc1 [Example 77] | 10 to 100 | 85 to 98 |
| Cc1cc2c(s1)Nc1ccccc1N=C2N1CCN[C@@H](Cc2cccs2)C1 [Example 80] | < 10 | 95 to 104 |
| Cc1cc2c(s1)Nc1ccccc1N=C2N1CCN[C@@H](Cc2ccc(Cl)cc2)C1 [Example 85] | < 10 | 91 to 108 |
| Cc1cc2c(s1)Nc1ccccc1N=C2N1CCN(C)[C@@H](CCc2ccccc2)C1 [Example 90, 2-Methyl-10-(4-methyl-3-(S)-phenethyl-piperazin-1-yl)-4H-3-thia-4,9-diaza-benzo[f]azulene] | 10 to 100 | 87 to 91 |
| CC(C)n1nc2c(n1)C(N1CCN(C)[C@@H](CCc3ccccc3)C1)=Nc1ccccc1N2 [Example 595, (S)-2-Isopropyl-10-(4-methyl-3-phenethyl-piperazin-1-yl)-2,4-dihydro-1,2,3,4,9-pentaaza-benzo[f]azulene dihydrochloride hemihydrate] | 10 to 100 |  |

More lines, now with the values ahead:

| Ki (Dopamine D2 receptor) [nM] | melting point [°C] | Compound |
| --- | --- | --- |
| 10 to 100 | 94 to 97 | Cc1cc2c(s1)Nc1ccccc1N=C2N1CCN(C)[C@@H](Cc2ccccc2)C1 [Example 92] |
| 10 to 100 | 67 to 83 | Cc1cccc(C[C@H]2CN(C3=Nc4ccccc4Nc4sc(C)cc43)CCN2C)c1 [Example 103] |
| < 10 | 81 to 93 | COc1ccccc1C[C@H]1CN(C2=Nc3ccccc3Nc3sc(C)cc32)CCN1C [Example 109] |
| 10 to 100 |  | COc1ccc(CC[C@H]2CN(C3=Nc4ccccc4Nc4sc(C)cc43)CCN2C)cc1 [Example 185, 10-((S)-3-(2-(4-Methoxy-phenyl)-ethyl)-4-methyl-piperazin-1-yl)-2-methyl-4H-3-thia-4,9-diaza-benzo[f]azulene dihydrochloride] |
| < 10 |  | COc1cccc(CC[C@H]2CN(C3=Nc4ccccc4Nc4sc(C)cc43)CCN2C)c1 [Example 186, 10-((S)-3-(2-(3-Methoxy-phenyl)-ethyl)-4-methyl-piperazin-1-yl)-2-methyl-4H-3-thia-4.9-diaza-benzo[f]azulene dihydrochloride] |
| 10 to 100 |  | COc1ccccc1CC[C@H]1CN(C2=Nc3ccccc3Nc3sc(C)cc32)CCN1C [Example 187, 10-((S)-3-(2-(2-Methoxy-phenyl)-ethyl)-4-methyl-piperazin-1-yl)-2-methyl-4H-3-thia-4,9-diaza-benzo[f]azulene dihydrochloride] |
| < 10 |  | Cc1cc2c(s1)Nc1ccccc1N=C2N1CCN[C@@H](CCCCc2ccccc2)C1 [Example 194] |
| 10 to 100 |  | Cc1cc2c(s1)Nc1ccccc1N=C2N1CCN(C)[C@@H](CCCCc2ccccc2)C1 [Example 195, (S)-2-Methyl-10-(3-(4-phenyl-butyl)-4-methyl-piperazin-1-yl)-4H-3-thia-4,9-diaza-benzo[f]azulene, dihydrochloric acid] |
| < 10 | 82 to 94 | Cc1cc2c(s1)Nc1ccccc1N=C2N1CCN[C@@H](Cc2ccsc2)C1 [Example 212] |
| 10 to 100 | 58 to 72 | Cc1cc2c(s1)Nc1ccccc1N=C2N1CCN(C)[C@@H](Cc2ccsc2)C1 [Example 219] |
| < 10 |  | Cc1nc2c(s1)Nc1ccccc1N=C2N1CCN[C@@H](CCc2ccccc2)C1 [Example 460, (S)-2-Methyl-10-(3-phenethyl-piperazin-1-yl)-4H-3-thia-1,4,9-triaza-benzo[f]azulene dihydrochloride hemihydrate] |
| 10 to 100 |  | Cc1nc2c(s1)Nc1ccccc1N=C2N1CCN(C)[C@@H](CCc2ccccc2)C1 [Example 461, (S)-2-Methyl-10-(4-methyl-3-phenethyl-piperazin-1-yl)-4H-3-thia-1,4,9-triaza-benzo[f]azulene dihydrochloride hemihydrate] |
| < 10 |  | CC(C)n1nc2c(n1)C(N1CCN[C@@H](CCc3ccccc3)C1)=Nc1ccccc1N2 [Example 594, (S)-2-Isopropyl-10-(3-phenethyl-piperazin-1-yl)-2,4-dihydro-1,2,3,4.9-pentaaza-benzo[f]azulene dihydrochloride hemihydrate] |
